The source of these data is patent US8933079B2, “Pyridone and pyridazinone derivatives as anti-obesity agents” (Boehringer Ingelheim International GmbH, priority 2012, dated 2015).

The test has as its target hMCH-1R (Homo sapiens (Human), UniProt Q99705). As to the kind of experiment: MCH-1 receptor binding test (125I-MCH binding to hMCH-1R transfected cell membranes). The note with it: competition with 100 pM 125I-MCH, membranes of CHO/Galpha16 cells stably transfected with hMCH-1R. The procedure: Res Commun. […] After the incubation the reaction is filtered using a cell harvester through 0.5% PEI treated fibreglass filters (GF/B, Unifilter Packard). The membrane-bound radioactivity retained on the filter is then determined after the addition of scintillator substance (Packard Microscint 20) in a measuring device (TopCount of Packard). […] The analysis of the concentration binding curve is carried out on the assumption of one receptor binding site.

pIC50: −log10 of the molar value.

hMCH-1R, sequence (Q99705 whole entry): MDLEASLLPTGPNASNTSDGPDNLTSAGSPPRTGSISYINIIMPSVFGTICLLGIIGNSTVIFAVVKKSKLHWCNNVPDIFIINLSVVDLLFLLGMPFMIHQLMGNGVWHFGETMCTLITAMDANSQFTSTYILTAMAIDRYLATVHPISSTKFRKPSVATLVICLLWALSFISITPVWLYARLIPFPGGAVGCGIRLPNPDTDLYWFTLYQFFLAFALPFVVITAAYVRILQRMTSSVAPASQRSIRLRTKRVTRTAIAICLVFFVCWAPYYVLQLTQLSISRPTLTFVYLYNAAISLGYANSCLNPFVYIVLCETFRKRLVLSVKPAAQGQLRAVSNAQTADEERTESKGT

One may read the pIC50 as the IC50 on a negative log10 scale, so that one unit is a factor of ten. In turn, `CCNCc1ccc(C(=O)Cn2ccc(OCc3ccc(Br)cn3)cc2=O)c(C)c1` [Example 4.6, 4-(5-Bromo-pyridin-2-ylmethoxy)-1-[2-(4-ethylaminomethyl-2-methyl-phenyl)-2-oxo-ethyl]-1H-pyridin-2-one] showed a pIC50 of 7.30.

In turn, `Cc1cc(CN2CCCC[C@@H]2CO)ccc1C(=O)Cn1ccc(OCc2ccc(Br)cn2)cc1=O` [Example 4.7, (R)-4-(5-Bromo-pyridin-2-ylmethoxy)-1-{2-[4-(2-hydroxymethyl-piperidin-1-ylmethyl)-2-methyl-phenyl]-2-oxo-ethyl}-1H-pyridin-2-one] showed a pIC50 of 7.85.

`Cc1cc(CN2CCCC2)ccc1C(=O)Cn1ccc(OCc2ccc(Br)cn2)cc1=O` [Example 4.8, 4-(5-Bromo-pyridin-2-ylmethoxy)-1-[2-(2-methyl-4-pyrrolidin-1-ylmethyl-phenyl)-2-oxo-ethyl]-1H-pyridin-2-one] showed a pIC50 of 7.77.

`Cc1cc(CN2CC[C@@H](O)C2)ccc1C(=O)Cn1ccc(OCc2ccc(Br)cn2)cc1=O` [Example 4.9, (R)-4-(5-Bromo-pyridin-2-ylmethoxy)-1-{2-[4-(3-hydroxy-pyrrolidin-1-ylmethyl)-2-methyl-phenyl]-2-oxo-ethyl}-1H-pyridin-2-one] had a pIC50 of 7.70.

For `CCN1CCN(Cc2ccc(C(=O)Cn3ccc(OCc4ccc(Br)cn4)cc3=O)c(C)c2)CC1` [Example 4.10], the pIC50 is 7.28.

Turning to `Cc1cc(CN2CCOCC2)ccc1C(=O)Cn1ccc(OCc2ccc(Br)cn2)cc1=O` [Example 4.11], the pIC50 is 7.23.

`Cc1cc(CN2CCC[C@@H](O)C2)ccc1C(=O)Cn1ccc(OCc2ccc(Br)cn2)cc1=O` [Example 4.12, (R)-4-(5-Bromo-pyridin-2-ylmethoxy)-1-{2-[4-(3-hydroxy-piperidin-1-ylmethyl)-2-methyl-phenyl]-2-oxo-ethyl}-1H-pyridin-2-one] showed a pIC50 of 7.64.

Compound `CNCc1ccc(C(=O)Cn2ccc(OCc3ccc(Br)cn3)cc2=O)c(C)c1` [Example 4.13, 4-(5-Bromo-pyridin-2-ylmethoxy)-1-[2-(2-methyl-4-methylaminomethyl-phenyl)-2-oxo-ethyl]-1H-pyridin-2-one] showed a pIC50 of 7.59.

The compound `Cc1cc(CN2CCN(C)CC2)ccc1C(=O)Cn1ccc(OCc2ccc(Br)cn2)cc1=O` [Example 4.14] showed a pIC50 of 7.14.

In the case of `Cc1cc(CNC(C)C)ccc1C(=O)Cn1ccc(OCc2ccc(Br)cn2)cc1=O` [Example 4.15, 4-(5-Bromo-pyridin-2-ylmethoxy)-1-{2-[4-(isopropylamino-methyl)-2-methyl-phenyl]-2-oxo-ethyl}-1H-pyridin-2-one], the pIC50 is 7.74.

In turn, `Cc1cc(CN2CCCCC2)ccc1C(=O)Cn1ccc(OCc2ccc(Br)cn2)cc1=O` [Example 4.16] had a negative logarithm of the IC50 (pIC50) of 7.92.

As to `Cc1cc(CN(C)C(C)C)ccc1C(=O)Cn1ccc(OCc2ccc(Br)cn2)cc1=O` [Example 4.17, 4-(5-Bromo-pyridin-2-ylmethoxy)-1-(2-{4-[(isopropyl-methyl-amino)-methyl]-2-methyl-phenyl}-2-oxo-ethyl)-1H-pyridin-2-one], the negative logarithm of the IC50 (pIC50) is 7.74.

For the compound `CCN(C)Cc1ccc(C(=O)Cn2ccc(OCc3ccc(Br)cn3)cc2=O)c(C)c1` [Example 4.18, 4-(5-Bromo-pyridin-2-ylmethoxy)-1-(2-{4-[(ethyl-methyl-amino)-methyl]-2-methyl-phenyl}-2-oxo-ethyl)-1H-pyridin-2-one], the pIC50 was 7.72.

On to `CCN(CC)Cc1ccc(C(=O)Cn2ccc(OCc3ccc(Br)cn3)cc2=O)c(C)c1` [Example 4.20, 4-(5-Bromo-pyridin-2-ylmethoxy)-1-[2-(4-diethylaminomethyl-2-methyl-phenyl)-2-oxo-ethyl]-1H-pyridin-2-one], for which the pIC50 was 7.72.

`Cc1cc(CN2CCC2)ccc1C(=O)Cn1ccc(OCc2ccc(Br)cn2)cc1=O` [Example 4.21, 1-[2-(4-Azetidin-1-ylmethyl-2-methyl-phenyl)-2-oxo-ethyl]-4-(5-bromo-pyridin-2-ylmethoxy)-1H-pyridin-2-one] showed a pIC50 of 7.74.

As for `Cc1cc(CN2CCC[C@@H](O)C2)ccc1C(=O)Cn1ncc(OCc2ccccc2)cc1=O` [Example 5.1, (R)-5-Benzyloxy-2-{2-[4-(3-hydroxy-piperidin-1-ylmethyl)-2-methyl-phenyl]-2-oxo-ethyl}-2H-pyridazin-3-one], the pIC50 is 7.85.

In the case of `Cc1cc(CN2CCC[C@H]2CO)ccc1C(=O)Cn1ncc(OCc2ccccc2)cc1=O` [Example 5.3, (S)-5-Benzyloxy-2-{2-[4-(2-hydroxymethyl-pyrrolidin-1-ylmethyl)-2-methyl-phenyl]-2-oxo-ethyl}-2H-pyridazin-3-one], the pIC50 was 7.96.

With `Cc1cc(CN2CC[C@@H](O)C2)ccc1C(=O)Cn1ncc(OCc2ccccc2)cc1=O` [Example 5.4, (R)-5-Benzyloxy-2-{2-[4-(3-hydroxy-pyrrolidin-1-ylmethyl)-2-methyl-phenyl]-2-oxo-ethyl}-2H-pyridazin-3-one], the negative logarithm of the IC50 (pIC50) is 7.92.

For the compound `Cc1cc(CN2CC[C@H](O)C2)ccc1C(=O)Cn1ncc(OCc2ccccc2)cc1=O` [Example 5.5], the pIC50 was 7.96.

On to `CCNCc1ccc(C(=O)Cn2ncc(OCc3ccccc3)cc2=O)c(C)c1` [Example 5.6, 5-Benzyloxy-2-[2-(4-ethylaminomethyl-2-methyl-phenyl)-2-oxo-ethyl]-2H-pyridazin-3-one], for which the pIC50 is 8.00.

In turn, `Cc1cc(CN2CC(O)C2)ccc1C(=O)Cn1ncc(OCc2ccccc2)cc1=O` [Example 5.7, 5-Benzyloxy-2-{2-[4-(3-hydroxy-azetidin-1-ylmethyl)-2-methyl-phenyl]-2-oxo-ethyl}-2H-pyridazin-3-one] had a pIC50 of 8.00.

The compound `Cc1cc(CN2CCC(O)CC2)ccc1C(=O)Cn1ncc(OCc2ccccc2)cc1=O` [Example 5.8] had a pIC50 of 7.82.

Compound `Cc1cc(CN2CCOC(C)C2)ccc1C(=O)Cn1ncc(OCc2ccccc2)cc1=O` (stereo not shown) [Example 5.9, 5-Benzyloxy-2-{2-[2-methyl-4-(2-methyl-morpholin-4-ylmethyl)-phenyl]-2-oxo-ethyl}-2H-pyridazin-3-one] gave a pIC50 of 7.52.

With `Cc1cc(CN2CCC(CO)CC2)ccc1C(=O)Cn1ncc(OCc2ccccc2)cc1=O` [Example 5.11, 5-Benzyloxy-2-{2-[4-(4-hydroxymethyl-piperidin-1-ylmethyl)-2-methyl-phenyl]-2-oxo-ethyl}-2H-pyridazin-3-one], the pIC50 was 7.89.

As to `Cc1cc(CN2CCCC[C@@H]2CO)ccc1C(=O)Cn1ncc(OCc2ccccc2)cc1=O` [Example 5.12, (R)-5-Benzyloxy-2-{2-[4-(2-hydroxymethyl-piperidin-1-ylmethyl)-2-methyl-phenyl]-2-oxo-ethyl}-2H-pyridazin-3-one], the pIC50 is 7.89.

In turn, `Cc1cc(CN2CCC[C@H](O)C2)ccc1C(=O)Cn1ncc(OCc2ccccc2)cc1=O` [Example 5.13, (S)-5-Benzyloxy-2-{2-[4-(3-hydroxy-piperidin-1-ylmethyl)-2-methyl-phenyl]-2-oxo-ethyl}-2H-pyridazin-3-one] gave a pIC50 of 7.89.

`Cc1cc(CN2CCC(C)(O)C2)ccc1C(=O)Cn1ncc(OCc2ccccc2)cc1=O` (stereo not shown) [Example 5.14, 5-Benzyloxy-2-{2-[4-(3-hydroxy-3-methyl-pyrrolidin-1-ylmethyl)-2-methyl-phenyl]-2-oxo-ethyl}-2H-pyridazin-3-one] showed a pIC50 of 8.00.

Compound `Cc1cc(CN2CCCC2)ccc1C(=O)Cn1ncc(OCc2ccc(F)cn2)cc1=O` [Example 6.1, 5-(5-Fluoro-pyridin-2-ylmethoxy)-2-[2-(2-methyl-4-pyrrolidin-1-ylmethyl-phenyl)-2-oxo-ethyl]-2H-pyridazin-3-one] had a pIC50 of 7.42.

`Cc1cc(CN2CCCCC2)ccc1C(=O)Cn1ncc(OCc2ccc(F)cn2)cc1=O` [Example 6.2, 5-(5-Fluoro-pyridin-2-ylmethoxy)-2-[2-(2-methyl-4-piperidin-1-ylmethyl-phenyl)-2-oxo-ethyl]-2H-pyridazin-3-one] had a pIC50 of 7.46.

In turn, `CCNCc1ccc(C(=O)Cn2ncc(OCc3ccc(F)cn3)cc2=O)c(C)c1` [Example 6.3] had a negative logarithm of the IC50 (pIC50) of 7.23.

Regarding `Cc1cc(CN2CCC(O)CC2)ccc1C(=O)Cn1ncc(OCc2ccc(F)cn2)cc1=O` [Example 6.4], the pIC50 is 7.24.

`Cc1cc(CN2CC[C@H](O)C2)ccc1C(=O)Cn1ncc(OCc2ccc(F)cn2)cc1=O` [Example 6.6] showed a pIC50 of 7.31.

Regarding `Cc1cc(CN2CCC[C@H]2CO)ccc1C(=O)Cn1ncc(OCc2ccc(Cl)cn2)cc1=O` [Example 7.1, (S)-5-(5-Chloro-pyridin-2-ylmethoxy)-2-{2-[4-(2-hydroxymethyl-pyrrolidin-1-ylmethyl)-2-methyl-phenyl]-2-oxo-ethyl}-2H-pyridazin-3-one], the pIC50 is 7.59.

For `CCN1CCN(Cc2ccc(C(=O)Cn3ncc(OCc4ccc(Cl)cn4)cc3=O)c(C)c2)CC1` [Example 7.2], the pIC50 is 7.15.

In the case of `Cc1cc(CN2CC(O)C2)ccc1C(=O)Cn1ncc(OCc2ccc(Cl)cn2)cc1=O` [Example 7.3], the pIC50 was 7.57.

Consider `Cc1cc(CN2CCN(C)CC2)ccc1C(=O)Cn1ncc(OCc2ccc(Cl)cn2)cc1=O` [Example 7.4], for which the pIC50 was 7.17.

On to `Cc1cc(CN2CCCCC2)ccc1C(=O)Cn1ncc(OCc2ccc(Cl)cn2)cc1=O` [Example 7.5], for which the pIC50 is 7.80.

Take `CNCc1ccc(C(=O)Cn2ncc(OCc3ccc(Cl)cn3)cc2=O)c(C)c1` [Example 7.6, 5-(5-Chloro-pyridin-2-ylmethoxy)-2-[2-(2-methyl-4-methylaminomethyl-phenyl)-2-oxo-ethyl]-2H-pyridazin-3-one]: the pIC50 is 7.55.

In turn, `CCNCc1ccc(C(=O)Cn2ncc(OCc3ccc(Cl)cn3)cc2=O)c(C)c1` [Example 7.7, 5-(5-Chloro-pyridin-2-ylmethoxy)-2-[2-(4-ethylaminomethyl-2-methyl-phenyl)-2-oxo-ethyl]-2H-pyridazin-3-one] gave a pIC50 of 7.74.

On to `Cc1cc(CN2CCC(CO)CC2)ccc1C(=O)Cn1ncc(OCc2ccc(Cl)cn2)cc1=O` [Example 7.8], for which the pIC50 was 7.59.
